Measured values as given in ChEMBL document CHEMBL3297720, “Synthesis and evaluation of N-alkyl-9-aminoacridines with antibacterial activity” (2014).
Values after ≈ are worked out from the molar mass of the structure shown. Active and inactive are the calls of the source. The rule behind the calls is not given here.

Tests used:
Staphylococcus aureus [1] = assay: Antibacterial activity against methicillin-resistant Staphylococcus aureus ATCC 43300 after 16 to 20 hrs by broth microdilution assay; type: functional
Staphylococcus aureus [2] = assay: Antibacterial activity against methicillin-sensitive Staphylococcus aureus […] 8545 after 16 to 20 hrs by broth microdilution assay; type: functional
Staphylococcus aureus [3] = assay: Antibacterial activity against methicillin-resistant Staphylococcus aureus IDRL 6169 after 16 to 20 hrs by broth microdilution assay; type: functional
Nucleic Acid = assay: Binding affinity to relaxed plasmid DNA (unknown origin) assessed as DNA intercalation at 4 to 100 uM after 10 mins by gel electrophoresis in presence of human topoisomerase 1; type: nucleic-acid assay

Row | Compound | MIC99 (Staphylococcus aureus [1]) | MIC99 (Staphylococcus aureus [2]) | MIC99 (Staphylococcus aureus [3]) | Activity (Nucleic Acid)
1 | CCCCCCCCNc1c2ccccc2nc2ccccc12 | 8.54 µM (≈ 2.62 µg/mL) | 10.3 µM (≈ 3.14 µg/mL) | 10.8 µM (≈ 3.31 µg/mL) | –
2 | CCCNc1c2ccccc2nc2cc(C(=O)N3CCN(C)CC3)ccc12 | > 100 µM | > 100 µM | > 100 µM | Active
3 | CCCNc1c2ccccc2nc2ccccc12 | > 100 µM | > 100 µM | > 100 µM | Active
4 | CCCCCCCCCCCNc1c2ccccc2nc2ccccc12 | 2.01 µM (≈ 0.701 µg/mL) | 3.81 µM (≈ 1.33 µg/mL) | 2.73 µM (≈ 0.951 µg/mL) | –
5 | CCCCCNc1c2ccccc2nc2cc(C(=O)N3CCN(C)CC3)ccc12 | > 100 µM | > 100 µM | > 100 µM | –
6 | CCCCCCCCCNc1c2ccccc2nc2ccccc12 | 3.19 µM (≈ 1.02 µg/mL) | 5.95 µM (≈ 1.91 µg/mL) | 3.59 µM (≈ 1.15 µg/mL) | –
7 | CCCCCCCCCCNc1c2ccccc2nc2cc(C(=O)N3CCN(C)CC3)ccc12 | 12.2 µM (≈ 5.6 µg/mL) | 12 µM (≈ 5.51 µg/mL) | 10.7 µM (≈ 4.95 µg/mL) | inactive
8 | CCCCCCCCNc1c2ccccc2nc2cc(C(=O)N3CCN(C)CC3)ccc12 | > 100 µM | > 100 µM | > 100 µM | –
9 | CCCCCCCCCCCCCNc1c2ccccc2nc2ccccc12 | 3.04 µM (≈ 1.14 µg/mL) | 2.61 µM (≈ 0.983 µg/mL) | 2.8 µM (≈ 1.05 µg/mL) | –
10 | CCCCCCCCCCCCCCCCNc1c2ccccc2nc2cc(C(=O)N3CCN(C)CC3)ccc12 | 6.23 µM (≈ 3.39 µg/mL) | 11.6 µM (≈ 6.31 µg/mL) | 9.06 µM (≈ 4.94 µg/mL) | –
11 | CCCCCCCCCCCNc1c2ccccc2nc2cc(C(=O)N3CCN(C)CC3)ccc12 | 3.61 µM (≈ 1.71 µg/mL) | 6.23 µM (≈ 2.96 µg/mL) | 6.14 µM (≈ 2.91 µg/mL) | –
12 | CCCCCCCCCCCCNc1c2ccccc2nc2cc(C(=O)N3CCN(C)CC3)ccc12 | 6.28 µM (≈ 3.07 µg/mL) | 4.8 µM (≈ 2.35 µg/mL) | 5.87 µM (≈ 2.87 µg/mL) | –
13 | CCCCCCCCCCCCCCCNc1c2ccccc2nc2cc(C(=O)N3CCN(C)CC3)ccc12 | 4.59 µM (≈ 2.44 µg/mL) | 5.91 µM (≈ 3.14 µg/mL) | 8.59 µM (≈ 4.56 µg/mL) | –
14 | CCCCCCCNc1c2ccccc2nc2cc(C(=O)N3CCN(C)CC3)ccc12 | > 100 µM | > 100 µM | > 100 µM | –
15 | CCCCCCCCCCCCCNc1c2ccccc2nc2cc(C(=O)N3CCN(C)CC3)ccc12 | 2.91 µM (≈ 1.46 µg/mL) | 3.57 µM (≈ 1.79 µg/mL) | 3.07 µM (≈ 1.54 µg/mL) | –
16 | CCCCCCCCCCNc1c2ccccc2nc2ccccc12 | 2.19 µM (≈ 0.733 µg/mL) | 2.61 µM (≈ 0.873 µg/mL) | 3.29 µM (≈ 1.1 µg/mL) | inactive
17 | CCCCCCCCCCCCNc1c2ccccc2nc2ccccc12 | 2.88 µM (≈ 1.04 µg/mL) | 2.88 µM (≈ 1.04 µg/mL) | 2.73 µM (≈ 0.99 µg/mL) | –
18 | CCCCNc1c2ccccc2nc2ccccc12 | > 100 µM | > 100 µM | > 100 µM | –
19 | CCCCCCNc1c2ccccc2nc2ccccc12 | 50.6 µM (≈ 14.1 µg/mL) | > 100 µM | 46.9 µM (≈ 13.1 µg/mL) | –
20 | CCCCCCCCCCCCCCCCNc1c2ccccc2nc2ccccc12 | 24.7 µM (≈ 10.3 µg/mL) | 26.2 µM (≈ 11 µg/mL) | 10.1 µM (≈ 4.25 µg/mL) | –
21 | CCCCCCCNc1c2ccccc2nc2ccccc12 | 24.5 µM (≈ 7.16 µg/mL) | 27.5 µM (≈ 8.05 µg/mL) | 22.9 µM (≈ 6.68 µg/mL) | –
22 | CCCCNc1c2ccccc2nc2cc(C(=O)N3CCN(C)CC3)ccc12 | > 100 µM | > 100 µM | > 100 µM | –
23 | CCCCCCCCCCCCCCNc1c2ccccc2nc2ccccc12 | 3.07 µM (≈ 1.2 µg/mL) | 2.98 µM (≈ 1.16 µg/mL) | 2.15 µM (≈ 0.84 µg/mL) | –
24 | CCCCCCCCCNc1c2ccccc2nc2cc(C(=O)N3CCN(C)CC3)ccc12 | 22.7 µM (≈ 10.1 µg/mL) | 35.5 µM (≈ 15.8 µg/mL) | 23.7 µM (≈ 10.6 µg/mL) | –
25 | CCCCCCNc1c2ccccc2nc2cc(C(=O)N3CCN(C)CC3)ccc12 | > 100 µM | > 100 µM | > 100 µM | –
26 | CCCCCCCCCCCCCCNc1c2ccccc2nc2cc(C(=O)N3CCN(C)CC3)ccc12 | 5.82 µM (≈ 3.01 µg/mL) | 6.25 µM (≈ 3.23 µg/mL) | 6.13 µM (≈ 3.17 µg/mL) | –
27 | CCCCCCCCCCCCCCCNc1c2ccccc2nc2ccccc12 | 6.1 µM (≈ 2.47 µg/mL) | 5.69 µM (≈ 2.3 µg/mL) | 3.21 µM (≈ 1.3 µg/mL) | –
28 | CCCCCNc1c2ccccc2nc2ccccc12 | > 100 µM | > 100 µM | > 100 µM | –
